According to publication PMC12209146 (Cellular and Molecular Life Sciences: CMLS, 2025):
pIC50: −log10 of the molar value. Where two headings read alike, the source gives them in different places. No end group written: not given here.

Assays:
[1] = system: zebrafish embryos; details: in vivo; cited from earlier work
[2] = molecular target: T1, TcdB (Clostridioides difficile, UniProt P18177); details: 100 µM peptide, 200 pM TcdB, added simultaneously, FCS-free medium, 7 h, 37 °C; n = 9
Target sequence in this assay (P18177 2-2366 limits assumed): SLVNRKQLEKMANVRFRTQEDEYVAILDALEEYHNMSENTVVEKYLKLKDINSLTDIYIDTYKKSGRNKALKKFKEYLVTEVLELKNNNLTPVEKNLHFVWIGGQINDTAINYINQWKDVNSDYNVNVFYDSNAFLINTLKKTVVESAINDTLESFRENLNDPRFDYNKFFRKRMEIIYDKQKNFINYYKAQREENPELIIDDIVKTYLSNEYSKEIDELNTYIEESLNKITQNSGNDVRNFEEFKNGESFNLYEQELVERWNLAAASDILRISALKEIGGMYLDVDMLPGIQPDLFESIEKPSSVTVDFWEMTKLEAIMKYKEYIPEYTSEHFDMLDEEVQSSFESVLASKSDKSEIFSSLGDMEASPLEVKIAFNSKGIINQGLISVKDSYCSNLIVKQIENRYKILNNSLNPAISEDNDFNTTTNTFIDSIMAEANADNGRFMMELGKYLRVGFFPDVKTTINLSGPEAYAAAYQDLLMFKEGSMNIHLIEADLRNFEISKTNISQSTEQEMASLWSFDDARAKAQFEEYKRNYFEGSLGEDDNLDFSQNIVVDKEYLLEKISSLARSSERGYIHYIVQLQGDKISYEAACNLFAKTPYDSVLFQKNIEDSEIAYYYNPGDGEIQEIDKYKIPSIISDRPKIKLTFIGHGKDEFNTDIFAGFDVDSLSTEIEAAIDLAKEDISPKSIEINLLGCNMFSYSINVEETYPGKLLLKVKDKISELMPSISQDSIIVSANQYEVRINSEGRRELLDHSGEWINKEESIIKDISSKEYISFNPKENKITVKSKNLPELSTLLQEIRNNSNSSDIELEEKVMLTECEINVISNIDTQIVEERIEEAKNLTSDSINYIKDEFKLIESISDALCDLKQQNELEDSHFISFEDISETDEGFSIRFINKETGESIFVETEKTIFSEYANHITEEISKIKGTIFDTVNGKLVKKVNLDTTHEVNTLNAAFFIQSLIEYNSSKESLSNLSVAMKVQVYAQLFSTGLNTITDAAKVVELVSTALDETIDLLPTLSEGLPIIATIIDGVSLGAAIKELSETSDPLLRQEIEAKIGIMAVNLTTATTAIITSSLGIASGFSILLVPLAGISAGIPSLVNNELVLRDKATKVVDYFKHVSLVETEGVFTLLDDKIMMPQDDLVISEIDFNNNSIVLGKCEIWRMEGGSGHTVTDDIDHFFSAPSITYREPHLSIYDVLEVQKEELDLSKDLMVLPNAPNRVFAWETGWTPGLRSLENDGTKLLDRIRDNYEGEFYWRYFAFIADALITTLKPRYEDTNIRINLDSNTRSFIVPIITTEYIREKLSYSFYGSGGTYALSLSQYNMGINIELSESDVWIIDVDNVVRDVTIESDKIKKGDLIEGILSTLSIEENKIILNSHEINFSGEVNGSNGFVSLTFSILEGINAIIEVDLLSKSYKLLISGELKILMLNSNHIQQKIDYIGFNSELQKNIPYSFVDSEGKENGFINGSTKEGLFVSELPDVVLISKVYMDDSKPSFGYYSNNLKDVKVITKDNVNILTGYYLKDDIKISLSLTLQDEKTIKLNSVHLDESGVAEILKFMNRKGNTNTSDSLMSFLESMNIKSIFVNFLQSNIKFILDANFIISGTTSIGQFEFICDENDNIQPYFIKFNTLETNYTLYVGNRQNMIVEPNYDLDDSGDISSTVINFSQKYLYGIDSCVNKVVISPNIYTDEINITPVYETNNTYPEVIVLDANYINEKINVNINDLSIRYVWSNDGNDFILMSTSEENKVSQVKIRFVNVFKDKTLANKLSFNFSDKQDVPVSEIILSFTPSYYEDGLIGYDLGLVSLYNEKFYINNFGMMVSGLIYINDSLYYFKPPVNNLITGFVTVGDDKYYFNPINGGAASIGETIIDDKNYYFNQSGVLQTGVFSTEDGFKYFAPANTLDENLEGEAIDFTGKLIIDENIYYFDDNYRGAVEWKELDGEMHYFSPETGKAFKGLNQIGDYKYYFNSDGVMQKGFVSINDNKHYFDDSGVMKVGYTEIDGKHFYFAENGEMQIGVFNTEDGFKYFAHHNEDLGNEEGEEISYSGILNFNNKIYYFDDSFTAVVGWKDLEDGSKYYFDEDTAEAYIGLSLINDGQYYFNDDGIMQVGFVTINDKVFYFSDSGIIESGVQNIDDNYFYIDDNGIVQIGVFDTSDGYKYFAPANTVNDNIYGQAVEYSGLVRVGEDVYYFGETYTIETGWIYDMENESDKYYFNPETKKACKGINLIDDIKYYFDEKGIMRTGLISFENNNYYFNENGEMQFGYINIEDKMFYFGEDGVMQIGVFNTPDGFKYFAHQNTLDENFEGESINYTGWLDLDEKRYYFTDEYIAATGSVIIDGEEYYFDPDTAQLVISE

[3] = molecular target: T1, TcdB; test: cell-based
Target sequence in this assay (P18177 2-2366 limits assumed): as above

[4] = in vitro; assay type: in vitro ADME, human; details: 37 °C
Method: The half-life of Angie 5 in plasma was calculated according to a work by Freisem et al., with minor modifications. A sample (0.5 ml) of human plasma was spiked with 20 µM Angie 5 and incubated at 37 °C. Aliquots (50 µl) were separated at 0, 15, 30, 60, and 120 min, respectively, and mixed with 250 µl 0.1% TFA in acetonitrile at − 20 °C. The mixture was centrifuged at 13,000 rpm for 30 s, and 150 µl of the supernatant was mixed with 150 µl 20% acetic acid in ice. The samples were analyzed with an Axima Confidence MALDI-TOF MS (Shimadzu) in linear mode using exactly the same measurement conditions for all samples spotted on a 384-well plate. Wells were coated with 0.5 µl of 10 mg/ml CHCA previously dissolved in TFA/water/acetonitrile/2-propanol (2.5/47.5/25/25, v/v), and the solvent was allowed to evaporate. Then, each sample (0.5 µl), previously mixed with matrix (0.5 µl), was applied onto the dry pre-coated well, and the solvent was allowed to evaporate. Laser shots were automatically done following a regular circular raster of a diameter of 2000 μm and spacing of 200 μm on each well; 100 profiles were acquired per sample, and 20 shots were accumulated per profile. An accelerating voltage of 20 kV was applied to the ion source. […] The half-life was calculated using GraphPad Prism version 10.3.1 for Windows, GraphPad Software, Boston, Massachusetts USA, www.graphpad.com. […]

[5] = system: C. difficile; details: previously shown; cited from earlier work
Method: Here, initially higher concentrations of the Angie peptides were tested and inhibition zones around the Angie peptides and the positive control were measured (Supplementary Fig. 1).

[6] = molecular target: T1, TcdB; details: Angie peptides 100 µM, α-defensin-6 6 µM, TcdB 50 ng in 25 µl PBS, 30 min, 37 °C, supernatant/pellet immunoblot; n = 3-4
Method: For the precipitation analysis, TcdB (50 ng equals 2 ng/µl) and inhibitors, α-defensin-6 (6 µM) and Angie peptides or water (solvent control) were incubated for 30 min in a total volume of 25 µl PBS. Next, the samples were centrifuged for 20 min, 14,000 rpm at 4 °C for separation of supernatant and pellet fraction. […] TcdB was detected using an anti-TcdB antibody (1:1000, Anti-Clostridium difficile Toxin B antibody, Abcam, Cambridge, UK).

For KAINTFIHGNKISIKAI [Angie 1], the “Toxicity for zebrafish embryos” value [1] is listed as “not toxic”.
For KDINTFIHGNKRSIKAI [reference Angie], the “Protection from TcdB-mediated cell rounding, CaCo-2 cells” value (from here on “Protection”) [2] was “did not inhibit”.
For KFINIFIHGNKRSIKAI [Angie 5], the pIC50 [3] was 4.33, the pIC50 ([3]; IC50 of TcdB-mediated cell rounding, Vero cells, 10 pM TcdB, no preincubation, 3 h after addition, FCS-free medium, ± SEM 1.08 µM, four-parameter fit) was 4.39 and the “K of one-phase decay curve in human plasma” value ([4]; fit of signal area vs. time, human plasma, 20 µM, MALDI-TOF) was 0.1274. The half-life at 20 µM ([4]; human plasma spiked with 20 µM, aliquots at 0, 15, 30, 60, 120 min, 0.1% TFA in acetonitrile, MALDI-TOF MS peak area, one-phase decay fit, n = 3 per time point) was 5.44 min and the “Protection” value [2] was “protected”.
With KGINTFIHGNKRSIKAI [Angie 6] the “Protection” value [2] was “did not inhibit”.
For KLINTFIHGNKRSIKAI [Angie 7], the “Protection” value [2] was “did not inhibit”.
In the case of “LL-37: antimicrobial peptide used as positive control in the radial diffusion assay (Anaspec) (LLGDFFRKSKEKIGKEFKRIVQRIKDFLRNLVPRTES; Antibacterial peptide LL-37; UniProt P49913 134-170, looked up)”, the “Activity against C. difficile” value [5] is listed as “activity against C. difficile”.
In the case of “α-defensin-6: human peptide, positive control for precipitation of TcdB (PeptaNova)”, the “Precipitate formation with TcdB” value [6] was “precipitate formation”.
